Reference: article PMC3841161, “De Novo Design and Synthesis of Ultra-Short Peptidomimetic Antibiotics Having Dual Antimicrobial and Anti-Inflammatory Activities” (PLoS ONE, 2013)
Residues, ends and D or L forms follow the SMILES beside them.

What was measured:
E. coli [KCTC 1682] = assay type: cell-based, Escherichia coli; details: broth microdilution, 1% peptone, 18−20 h at 37°C, absorbance at 600 nm
Protocol: (§1) The antimicrobial activity of the peptides against two Gram-positive bacterial strains and two Gram-negative bacterial strains was examined using the broth microdilution method in sterile 96-well plates. Aliquots (100 µL) of a bacterial suspension at 2×10^6 colony-forming units (CFU)/mL in 1% peptone were added to 100 µL of the peptide solution (serial two-fold dilutions in 1% peptone). After incubation for 18−20 h at 37°C, bacterial growth inhibition was determined by measuring the absorbance at 600 nm with a Microplate Autoreader EL 800 (Bio-Tek Instruments, VT). The minimal inhibitory concentration (MIC) was defined as the minimum peptide concentration inhibited bacteria growth. Two types of Gram-positive bacteria (S. epidermidis [KCTC 1917] and S. aureus [KCTC 1621]) and two types of Gram-negative bacteria (E. coli [KCTC 1682] and P. aeruginosa [KCTC 1637]) were procured from the Korean Collection for Type Cultures (KCTC) at the Korea Research Institute of Bioscience and Biotechnology (KRIBB). MRSA samples (CCARM 3089, CCARM 3090, and CCARM 3095) were obtained from the Culture Collection of Antibiotic-Resistant Microbes (CCARM) at Seoul Women's University (Seoul, Korea).

[1] = tested on: P. aeruginosa [KCTC 1637]; assay type: cell-based, Pseudomonas aeruginosa; details: broth microdilution, 1% peptone, 18−20 h at 37°C, absorbance at 600 nm
Protocol: as §1

[2] = tested on: S. epidermidis [KCTC 1917]; assay type: cell-based, Staphylococcus epidermidis; details: broth microdilution, 1% peptone, 18−20 h at 37°C, absorbance at 600 nm
Protocol: as §1

S. aureus [KCTC 1621] = assay type: cell-based, Staphylococcus aureus; details: broth microdilution, 1% peptone, 18−20 h at 37°C, absorbance at 600 nm
Protocol: as §1

[3] = tested on: four bacterial strains (E. coli, P. aeruginosa, S. epidermidis, S. aureus); assay type: cell-based; details: four bacterial strains
Protocol: (§2) The prokaryotic selectivity of our designed HDAMPs is defined by the therapeutic index (TI) as a measure of the relative safety of the drug. It is a measure of a peptide's capability to differentiate any pathogen from a host cell. The TI value of each peptide was calculated as the ratio of the HC10 (the peptide concentration that produces 10% hemolysis toward hRBCs) to the geometric mean [GM; the geometric mean of the minimal inhibitory concentration (MIC) against four selected bacterial strains]. Larger values of TI correspond to greater prokaryotic selectivity.
as §1

[4] = tested on: human red blood cells (hRBCs); test: Hemolytic activity; assay type: cell-based; details: 4% (v/v) hRBCs in PBS pH 7.4, 1 h at 37°C, absorbance at 405 nm; maximum concentration 256 µg/mL
Protocol: Hemolytic activity of peptides was tested against hRBCs. Fresh hRBCs were washed three times with phosphate-buffered saline (PBS; 35-mM phosphate buffer containing 150 mM of NaCl, pH 7.4) by centrifugation for 10 min at 1000×g and then re-suspended in PBS. The peptide solutions (serial two-fold dilutions in PBS) were then added to 100 µL of hRBCs in PBS to give a final volume of 200 µL and a final erythrocyte concentration of 4% (v/v). The resulting suspension was incubated with agitation for 1 h at 37°C. The samples were then centrifuged at 1000×g for 5 min, and hemoglobin release was monitored by measuring the absorbance of the supernatant at 405 nm. No hemolysis (blank) and 100% hemolysis controls consisted of hRBCs suspended in PBS and 0.1% Triton X-100, respectively. Percent hemolysis was calculated using the following equation: [drawing 1]

[5] = tested on: hRBCs versus four bacterial strains; test: Prokaryotic selectivity (therapeutic index, HC10/GM); details: ratio of HC10 to GM; 512 µg/mL used for HC10 >256 and 128 µg/mL for MIC >64
Protocol: as §2

[6] = Hydrophobicity by RP-HPLC retention time; assay type: physicochemical; details: measure of hydrophobicity; Vydac C18 analytical column 5 µm, 4.6 mm ×250 mm; linear gradient 0–90% acetonitrile in water, 0.05% TFA, 60 min
Text: A series of Trp (W)/Arg (R)–rich peptides [(WR)3-NH2, (WR)2-NH2 and RWR-NH2], reported as being short and potent antimicrobial peptides, were used as sequence templates, and their antimicrobial and hemolytic activities were compared to seven HDAMPs (Figure 2). Matrix-assisted laser-desorption ionization time-of-flight mass spectrometry (MALDI-TOF MS) was used to verify the molecular weight of both Trp/Arg-rich AMPs and the seven HDAMPs. Human cathelicidin LL-37, a potent antimicrobial and anti-inflammatory peptide, served as a positive control for comparing the antimicrobial, hemolytic, and anti-inflammatory activities. The hydrophobicity of all of the peptides was measured with the use of reverse-phase high-performance liquid chromatography (RP-HPLC) retention time (Rt).
All peptides were prepared by Fmoc SPPS methods using Rink amide with an initial loading of 0.61 mmol/g, unless otherwise noted. Fmoc-Arg(Pbf)-OH and other Fmoc-protected amino acids were purchased from Novabiochem. Resins were swollen in DMF for 45 min prior to synthesis. […] The final purity and hydrophobicity of the peptides (>98%) were assessed by RP-HPLC on an analytical Vydac C18 column (4.6 mm ×25 0 mm, 300 Å, 5 µm particle size, Table 3). The molecular masses of purified peptides were determined using MALDI-TOF MS (Shimadzu, Japan).

trypsin = test: Protease stability by radial diffusion assay; assay type: in vitro ADME; details: 5 µL of 10 mg/mL peptide in 25 µL of 0.2-µg/mL trypsin in PBS, 37°C, text: 24 h, method: 6 h
Protocol: E. coli (KCTC 1682) was grown overnight for 18 h at 37°C in 10 mL of LB broth, and then 10 µl of this culture was inoculated into 10 mL of fresh LB and incubated for an additional 3 h at 37°C to obtain mid-logarithmic-phase organisms. For the radial diffusion assay method, a bacteria suspension (2×10^6 CFU/mL in LB) was mixed with 0.7% agarose. The mixture was poured into a 10-cm petri dish after rapidly dispersing. Five microliters of an aqueous peptide stock solution (10 mg/mL) were added to 25 µL of the 0.2-µg/mL trypsin solution in PBS, respectively, and incubated at 37°C for 6 h. The reaction was stopped by freezing with liquid nitrogen, and then 10-µL aliquots were placed in each circle paper (≈6 mm in diameter) put on the agarose plates and then incubated at 37°C overnight. The diameters of the bacterial clearance zones surrounding the circle paper were measured for the quantitation of inhibitory activities.

What does the source list for N=C(N)NCCC[C@H](NC(=O)[C@H](Cc1c[nH]c2ccccc12)NC(=O)[C@H](CCCNC(=N)N)NC(=O)[C@@H](N)Cc1c[nH]c2ccccc12)C(N)=O [(WR)2-NH2, reference compound] (H-WRWR-NH2)?
Minimal Inhibitory Concentration (MIC) E. coli [KCTC 1682] (E. coli [KCTC 1682]): 32 (45.6) µg/mL; Minimal Inhibitory Concentration (MIC) P. aeruginosa [KCTC 1637] [1]: 32 (45.6) µg/mL; Minimal Inhibitory Concentration (MIC) S. epidermidis [KCTC 1917] [2]: 8 (11.4) µg/mL; Minimal Inhibitory Concentration (MIC) S. aureus [KCTC 1621] (S. aureus [KCTC 1621]): 32 (45.6) µg/mL; GM, geometric mean of the MIC values against four bacterial strains [3]: 26 (37) µg/mL; % Hemolysis (HC10), peptide concentration that induces 10% hemolysis against human erythrocytes [4]: >256 (>364.5) µg/mL; TI (HC10/GM), therapeutic index [5]: 19.7

Which “RP-HPLC retention time (Rt)” value [6] does the source give for N=C(N)NCCC[C@H](NC(=O)[C@H](Cc1c[n+](CCCCCCCc2ccccc2)cn1CCCCCCCc1ccccc1)NC(=O)[C@H](CCCNC(=N)N)NC(=O)[C@@H](N)Cc1c[n+](CCCCCCCc2ccccc2)cn1CCCCCCCc1ccccc1)C(N)=O [Tetrameric HDAMP, His((CH2)7C6H5)2-Arg-His((CH2)7C6H5)2-Arg-NH2] here?
Its value is 37.7 min.

For CC[C@H](C)[C@H](NC(=O)CN)C(=O)NCC(=O)N[C@@H](C)C(=O)N[C@H](C(=O)N[C@@H](CC(C)C)C(=O)N[C@@H](CCCCN)C(=O)N[C@H](C(=O)N[C@@H](CC(C)C)C(=O)N[C@H](C(=O)N[C@H](C(=O)NCC(=O)N[C@@H](CC(C)C)C(=O)N1CCC[C@H]1C(=O)N[C@@H](C)C(=O)N[C@@H](CC(C)C)C(=O)N[C@H](C(=O)N[C@@H](CO)C(=O)N[C@@H](Cc1c[nH]c2ccccc12)C(=O)N[C@H](C(=O)N[C@@H](CCCCN)C(=O)N[C@@H](CCCNC(=N)N)C(=O)N[C@@H](CCCCN)C(=O)N[C@@H](CCCNC(=N)N)C(=O)N[C@@H](CCC(N)=O)C(=O)N[C@@H](CCC(N)=O)C(N)=O)[C@@H](C)CC)[C@@H](C)CC)[C@@H](C)O)[C@@H](C)O)C(C)C)C(C)C [melittin], which “antimicrobial activity against E. coli (KCTC 1682) in the presence of trypsin (in words)” value (trypsin) is on record?
The value was “completely lost their antimicrobial activities”.
